Target: unphosphorylated-BTK kinase domain (UP-BTK), GST-tagged human BTK (389-659aa) (Homo sapiens (Human), UniProt Q06187)
Assay: BTK kinase Lanthascreen binding assay
Settings: 60 minutes incubation, pIC50 = negative log of the IC50 in molar
How it was run: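 Measures how well compounds compete with a fluorescence-labelled tracer for binding to BTK in its unphosphorylated state. IC50 values were fitted and expressed as pIC50 (negative logarithm of the molar IC50).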

[1] = Lanthascreen tracer competition

Chain of unphosphorylated-BTK kinase domain (UP-BTK), GST-tagged human BTK (389-659aa) (Q06187 389-659): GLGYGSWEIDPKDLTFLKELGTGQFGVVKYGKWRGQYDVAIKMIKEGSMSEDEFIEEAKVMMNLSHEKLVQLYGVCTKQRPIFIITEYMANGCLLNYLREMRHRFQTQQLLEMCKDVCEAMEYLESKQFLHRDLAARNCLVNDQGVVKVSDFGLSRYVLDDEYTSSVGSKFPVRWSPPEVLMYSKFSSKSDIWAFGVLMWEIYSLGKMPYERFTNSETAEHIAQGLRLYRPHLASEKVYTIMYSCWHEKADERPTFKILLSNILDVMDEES

Structure (SMILES) | BTK_I_binding pIC50 [1] | further results
COc1ccc(N2C(=O)Nc3c(C(=O)NC4CCCN(C(=O)/C(C#N)=C/C5CC5)C4)sc4nccc2c34)c(C)c1 (stereo not shown) [Example 878, (E)-N-(1-(2-Cyano-3-cyclopropylacryloyl)piperidin-3-yl)-5-(4-methoxy-2-methylphenyl)-4-oxo-4,5-dihydro-3H-1-thia-3,5,8-triazaacenaphthylene-2-carboxamide] | 7.1 | –
C=CC(=O)N1CC[C@@H](NC(=O)c2sc3nccc4c3c2NC(=O)N4c2ccc(Oc3ccccn3)cc2)C1 [Example 881, (R)—N-(1-Acryloylpyrrolidin-3-yl)-4-oxo-5-(4-(pyridin-2-yloxy)phenyl)-4,5-dihydro-3H-1-thia-3,5,8-triazaacenaphthylene-2-carboxamide] | 7.1 | –
Cc1cc(Oc2ccccc2)ccc1N1C(=O)Nc2c(C(=O)NC3CCCN(C(=O)CC#N)C3)sc3nccc1c23 (stereo not shown) [Example 882, N-(1-(2-Cyanoacetyl)piperidin-3-yl)-5-(2-methyl-4-phenoxyphenyl)-4-oxo-4,5-dihydro-3H-1-thia-3,5,8-triazaacenaphthylene-2-carboxamide] | 7.0 | –
COc1ccccc1Oc1ccc(N2C(=O)Nc3c(C(=O)NC4CCN(C#N)CC4)sc4nccc2c34)c(C)c1 [Example 884, N-(1-Cyanopiperidin-4-yl)-5-(4-(2-methoxyphenoxy)-2-methylphenyl)-4-oxo-4,5-dihydro-3H-1-thia-3,5,8-triazaacenaphthylene-2-carboxamide] | 7.0 | –
Cc1ccccc1N1C(=O)Nc2c(C(=O)NC3CCCN(C(=O)/C(C#N)=C/C4CC4)C3)sc3nccc1c23 (stereo not shown) [Example 886, (E)-N-(1-(2-Cyano-3-cyclopropylacryloyl)piperidin-3-yl)-4-oxo-5-(o-tolyl)-4,5-dihydro-3H-1-thia-3,5,8-triazaacenaphthylene-2-carboxamide] | 7.0 | –
Cc1cc(Oc2ccccc2)ccc1N1C(=O)Nc2c(C(=O)NC3CCCNC3)sc3nccc1c23 (stereo not shown) [Example 889, 5-(2-methyl-4-phenoxyphenyl)-4-oxo-N-(piperidin-3-yl)-4,5-dihydro-3H-1-thia-3,5,8-triazaacenaphthylene-2-carboxamide] | 7.0 | –
Cc1cc(Oc2ccccc2)ccc1N1C(=O)Nc2c(C(=O)N[C@H]3CCCN(C(=O)CC#N)C3)sc3nccc1c23 [Example 892, (S)—N-(1-(2-Cyanoacetyl)piperidin-3-yl)-5-(2-methyl-4-phenoxyphenyl)-4-oxo-4,5-dihydro-3H-1-thia-3,5,8-triazaacenaphthylene-2-carboxamide] | 7.0 | –
Cc1cc(Oc2ccccc2)ccc1N1C(=O)Nc2c(C(=O)N[C@@H]3CCCN(C(=O)[C@@H]4CCCN4)C3)sc3nccc1c23 [Example 893, 5-(2-Methyl-4-phenoxyphenyl)-4-oxo-N—((R)-1-((S)-pyrrolidine-2-carbonyl)piperidin-3-yl)-4,5-dihydro-3H-1-thia-3,5,8-triazaacenaphthylene-2-carboxamide] | – | IC50 (Lanthascreen tracer competition, read-out: BTK_I_binding pIC50 (converted)): 0.1 µM
C=CC(=O)N1CCC[C@@H](NC(=O)c2sc3nccc4c3c2NC(=O)N4c2ccc(Oc3cccc(COc4ccccc4C#N)c3)cc2C)C1 [Example 894, (R)—N-(1-Acryloylpiperidin-3-yl)-5-(4-(3-((2-cyanophenoxy)methyl)phenoxy)-2-methylphenyl)-4-oxo-4,5-dihydro-3H-1-thia-3,5,8-triazaacenaphthylene-2-carboxamide] | 7.0 | –
Cc1cc(C(=O)Nc2cc(C(F)(F)F)ccn2)ccc1N1C(=O)Nc2c(C(=O)N[C@H]3CCCN(C(=O)/C(C#N)=C/C4CC4)C3)sc3nccc1c23 [Example 895, (S,E)-N-(1-(2-Cyano-3-cyclopropylacryloyl)piperidin-3-yl)-5-(2-methyl-4-((4-(trifluoromethyl)pyridin-2-yl)carbamoyl)phenyl)-4-oxo-4,5-dihydro-3H-1-thia-3,5,8-triazaacenaphthylene-2-carboxamide] | 7.0 | –
COc1ccccc1Oc1ccc(N2C(=O)Nc3c(C(=O)NC4CCCN(C(=O)/C(C#N)=C/C(C)(C)C)C4)sc4nccc2c34)c(C)c1 (stereo not shown) [Example 896, (E)-N-(1-(2-Cyano-4,4-dimethylpent-2-enoyl)piperidin-3-yl)-5-(4-(2-methoxyphenoxy)-2-methylphenyl)-4-oxo-4,5-dihydro-3H-1-thia-3,5,8-triazaacenaphthylene-2-carboxamide] | 6.9 | –
Cc1cc(Oc2ccccc2)ccc1N1C(=O)Nc2c(C(=O)NC3CCCN(C)C3)sc3nccc1c23 (stereo not shown) [Example 898, 5-(2-Methyl-4-phenoxyphenyl)-N-(1-methylpiperidin-3-yl)-4-oxo-4,5-dihydro-3H-1-thia-3,5,8-triazaacenaphthylene-2-carboxamide] | 6.8 | –
Cc1c(Oc2ccccc2)cccc1N1C(=O)Nc2c(C(=O)N[C@@H]3CCCN(C(=O)/C(C#N)=C/C4CC4)C3)sc3nccc1c23 [Example 901, (R,E)-N-(1-(2-Cyano-3-cyclopropylacryloyl)piperidin-3-yl)-5-(2-methyl-3-phenoxyphenyl)-4-oxo-4,5-dihydro-3H-1-thia-3,5,8-triazaacenaphthylene-2-carboxamide] | 6.8 | –
N#C/C(=C\C1CC1)C(=O)N1CCC[C@H](NC(=O)c2sc3nccc4c3c2NC(=O)N4c2ccc(C(=O)Nc3cc(C(F)(F)F)ccn3)cc2F)C1 [Example 902, (S,E)-N-(1-(2-Cyano-3-cyclopropylacryloyl)piperidin-3-yl)-5-(2-fluoro-4-((4-(trifluoromethyl)pyridin-2-yl)carbamoyl)phenyl)-4-oxo-4,5-dihydro-3H-1-thia-3,5,8-triazaacenaphthylene-2-carboxamide] | – | BTK_I_binding pIC50 (unphosphorylated-BTK kinase domain, 50 nM Tracer 236): 6.8

Now from value to molecule, other results behind:

BTK_I_binding pIC50 [1] | Structure (SMILES) | further results
7.1 | Cc1cc(Oc2ccccc2)ccc1N1C(=O)Nc2c(C(=O)N[C@H]3CCCN(C=O)C3)sc3nccc1c23 [Example 879, (S)—N-(1-Formylpiperidin-3-yl)-5-(2-methyl-4-phenoxyphenyl)-4-oxo-4,5-dihydro-3H-1-thia-3,5,8-triazaacenaphthylene-2-carboxamide] | –
7.1 | Cc1cc(Oc2ccccc2)ccc1N1C(=O)Nc2c(C(=O)N[C@@H]3CCCN(C(=O)/C(C#N)=C/C(C)(C)C)C3)sc3nccc1c23 [Example 880, (R,E)-N-(1-(2-Cyano-4,4-dimethylpent-2-enoyl)piperidin-3-yl)-5-(2-methyl-4-phenoxyphenyl)-4-oxo-4,5-dihydro-3H-1-thia-3,5,8-triazaacenaphthylene-2-carboxamide] | –
7.0 | COc1ccccc1Oc1ccc(N2C(=O)Nc3c(C(=O)NC4CCCN(C#N)C4)sc4nccc2c34)c(C)c1 (stereo not shown) [Example 883, N-(1-Cyanopiperidin-3-yl)-5-(4-(2-methoxyphenoxy)-2-methylphenyl)-4-oxo-4,5-dihydro-3H-1-thia-3,5,8-triazaacenaphthylene-2-carboxamide] | –
7.0 | Cc1cc(Oc2ccccc2)ccc1N1C(=O)Nc2c(C(=O)N[C@@H]3CCCN(C=O)C3)sc3nccc1c23 [Example 885, (R)—N-(1-Formylpiperidin-3-yl)-5-(2-methyl-4-phenoxyphenyl)-4-oxo-4,5-dihydro-3H-1-thia-3,5,8-triazaacenaphthylene-2-carboxamide] | –
7.0 | Cc1cc(Oc2ccccc2)ccc1N1C(=O)Nc2c(C(=O)N[C@H]3CCCN(C#N)C3)sc3nccc1c23 [Example 887, (S)—N-(1-Cyanopiperidin-3-yl)-5-(2-methyl-4-phenoxyphenyl)-4-oxo-4,5-dihydro-3H-1-thia-3,5,8-triazaacenaphthylene-2-carboxamide] | –
7.0 | CC(=O)N1CC[C@@H](NC(=O)c2sc3nccc4c3c2NC(=O)N4c2ccc(Oc3ccccc3)cc2)C1 [Example 888, (R)—N-(1-Acetylpyrrolidin-3-yl)-4-oxo-5-(4-phenoxyphenyl)-4,5-dihydro-3H-1-thia-3,5,8-triazaacenaphthylene-2-carboxamide] | –
7.0 | Cc1cc(Oc2ccccc2)ccc1N1C(=O)Nc2c(C(=O)NC3CCCN(C#N)C3)sc3nccc1c23 (stereo not shown) [Example 890, N-(1-Cyanopiperidin-3-yl)-5-(2-methyl-4-phenoxyphenyl)-4-oxo-4,5-dihydro-3H-1-thia-3,5,8-triazaacenaphthylene-2-carboxamide] | –
7.0 | CCC(=O)N1CCC[C@H](NC(=O)c2sc3nccc4c3c2NC(=O)N4c2ccc(Oc3ccccc3)cc2C)C1 [Example 891, (S)-5-(2-Methyl-4-phenoxyphenyl)-4-oxo-N-(1-propionylpiperidin-3-yl)-4,5-dihydro-3H-1-thia-3,5,8-triazaacenaphthylene-2-carboxamide] | –
6.8 | Cc1cc(Oc2ccccc2)ccc1N1C(=O)Nc2c(C(=O)NC3CCCN(C(=O)/C(C#N)=C/C(C)(C)C)C3)sc3nccc1c23 (stereo not shown) [Example 897, (E)-N-(1-(2-Cyano-4,4-dimethylpent-2-enoyl)piperidin-3-yl)-5-(2-methyl-4-phenoxyphenyl)-4-oxo-4,5-dihydro-3H-1-thia-3,5,8-triazaacenaphthylene-2-carboxamide] | –
6.8 | Cc1cc(Oc2ccccc2)ccc1N1C(=O)Nc2c(C(=O)N[C@H]3CCCN(C(=O)/C(C#N)=C/C4CC4)C3)sc3nccc1c23 [Example 899, (S,E)-N-(1-(2-Cyano-3-cyclopropylacryloyl)piperidin-3-yl)-5-(2-methyl-4-phenoxyphenyl)-4-oxo-4,5-dihydro-3H-1-thia-3,5,8-triazaacenaphthylene-2-carboxamide] | –
6.8 | Cc1cc(Oc2ccccc2)ccc1N1C(=O)Nc2c(C(=O)N[C@@H]3CCCN(C(=O)/C=C/CN4CCCCC4)C3)sc3nccc1c23 [Example 900, (R,E)-5-(2-Methyl-4-phenoxyphenyl)-4-oxo-N-(1-(4-(piperidin-1-yl)but-2-enoyl)piperidin-3-yl)-4,5-dihydro-3H-1-thia-3,5,8-triazaacenaphthylene-2-carboxamide] | –

— patent publication US10800792B2, “Inhibitors of Bruton's tyrosine kinase and method of their use” (JANSSEN PHARMACEUTICA NV, priority 2015, dated 2020)
